Reference: paper PMC8318231, “Rate-of-Kill (RoK) assays to triage large compound sets for Chagas disease drug discovery: Application to GSK Chagas Box” (PLoS Neglected Tropical Diseases, 2021)
Read-outs that look alike come from different tables or passages of the source.

Columns and labels:
[1] = system: T. cruzi Tulahuen trypomastigotes; test: T. cruzi trypomastigote assay (Cell Titer-Glo viability, ATP luminescence); format: cell-based, Trypanosoma cruzi; conditions: for IC50: Trypanosoma cruzi, TULAHUEN; for Trypomastigotes pIC50 48 hours: 48 hours incubation; for Trypomastigotes pIC50 48 hours / Trypomastigotes pIC50 72 hours: pIC50 = -log10 IC50 in molar units; for Trypomastigotes pIC50 72 hours: 72 hours incubation
Summary of the method: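 Compounds were tested in dose response or once at a final 5 μM against 5 × 10^4 trypomastigotes per well (DMEM, 2% FBS), collected on days 5–8 from LLC-MK2 infected cultures. ATP luminescence via CellTiter-Glo reports live parasites; DMSO defines 0% and cell-free wells 100% effect.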

[2] = system: T. cruzi intracellular amastigotes in H9c2 cells; test: Rate-of-Kill (RoK) high-content imaging assay, amastigotes per cell (AM/CELL) and curve descriptors; format: cell-based, Trypanosoma cruzi; design: key to ME_24h / ME_48h / ME_72h: % reduction in parasite burden (cidal response); t50pct_MCC50 / t50pct_Cmax: unit not given here; conditions: for ME_24h: 24h; for ME_48h: 48h; for ME_72h: 72h; for t50%_Cmax / tlag_Cmax / t50pct_Cmax: at Cmax; for ME_24h (%): maximum effect at 24 h; for ME_24h (%) / ME_48h (%) / ME_72h (%): RoK assay; for ME_48h (%): maximum effect at 48 h; for ME_72h (%): maximum effect at 72 h
Procedure: For this high-content intracellular imaging assay, H9c2 cells were seeded in 225 cm^2 T- FLASK in DMEM with 10% FBS for 4 h to allow attachment. T. cruzi trypomastigotes, collected at days 5 to 8 after infection from LLC-MK2 parasite infected cultures, were allowed to swim out for 4 h at 37°C from a centrifuged pellet (1,600 x g / 10 min). Trypomastigotes were then collected and counted in a CASY Cell Counter using the 60 μm capillary. Trypomastigotes, in supplemented DMEM, were added to H9c2 cultures in a multiplicity of infection (MOI) of 8 and incubated for 18 h. Cells were washed once with PBS before incubation of the infected H9c2 monolayer with trypsin (Life-Technologies) to detach cells from the flask. Cells were counted in a CASY Cell Counter, using the 150 μm capillary, and their density set at 5 x 10^4 cells/mL in supplemented DMEM. Infected H9c2 were dispensed into 384-well plates at 50 μL per well using a Multidrop Combi dispenser. Control wells used to determine a 100% parasitic growth (full 6th column of each plate) were left untreated, whereas not infected cells were added in the control wells used as 0% parasite growth (or 100% parasite growth inhibition; full 18th column of each plate). The four plates corresponding to each RoK assay were predispensed for the same mother plate. […] Cultures were then fixed and stained with 50 μL per well of a PBS solution containing 4% formaldehyde and 2 μM DRAQ5 DNA dye (BioStatus, UK). Then plates were read in a PerkinElmer Opera Phenix using a 20x objective, 3 fields per well. DRAQ5 signal was detected using 640 nm excitation laser and a 690/50 nm emission detection filter. Automated image analysis was performed with a script developed on Acapella High Content Imaging and Analysis Software (PerkinElmer). Two outputs were provided for each sample well: (1) number of host cells nuclei to determine drug-related cytotoxicity (aka H9c2) and (2) number of amastigotes per cell as infection level measurement (aka AM/CELL). Each output is plotted as a time course for each compound at every concentration. This assay was adapted from Alonso-Padilla et al. and Peña et al..
To identify and classify the different compounds, the number of amastigotes per cell (AM/CELL) raw data obtained in rate of kill assay are normalised using the average of C1 (infected cells) at time 4 hours as 0% effect and the average of C2 (non-infected cells) for each time as 100% effect, according to the following Eq 1: %CIDALRESPONSE=100*[Avg_C14h-RawData]/[Avg_C14h-Avg_C2] (1)
• ME (Maximum Effect) is the maximum percentage of parasite burden reduction reached by any compound concentration. Compounds that decrease the initial parasite load will show a positive value of ME, whereas compounds that allow the progression of infection will render a negative ME value. […] It is calculated for the MCC50 (t50%_MCC50) and for the maximum concentration (t50%_Cmax). […] The value of this parameter is not either interpolated or extrapolated, and it refers to the first experimental time-course point at which a 50% of effect is reached or exceeded. • tlag defines the time elapsed for one particular concentration to reduce parasite burden between two consecutive points at any moment of the time course. It is calculated for the MCC50 (tlag_MCC50) and for the maximum concentration (tlag_Cmax). The value of this parameter is not either interpolated or extrapolated, and it refers to the first experimental time-course point of a positive slope in the normalised plot (i.e. %Cidal_Response). • Cmin_Tox (Minimal CytoToxic Concentration) is the lowest compound concentration that is reducing the number of host mammalian cells below 50% of initial cell density. Cytotoxic compounds may mislead a bona fide antiparasitic action.

[3] = trypomastigote assay, 72 h, figure 1B
[4] = maximum percentage of parasite burden reduction reached by any concentration, 24 hours

Structure (SMILES) | 72 pIC50 [1, 3] | ME (maximum effect) in RoK assay (in words) [2] | ME_24h ([2]; figure 5) | ME_48h ([2]; figure 5) | ME_72h ([2]; figure 5) | MCC50 ([2]; RoK curve descriptor) [µM] | MCCE ([2]; RoK curve descriptor) [µM] | t50%_Cmax [2] [h] | tlag_Cmax [2] [h] | t50pct_Cmax ([2]; figure 5) | tlag_Cmax ([2]; figure 5) | t50%_MCC50 ([2]; at MCC50) [h] | tlag_MCC50 ([2]; at MCC50) [h] | t50pct_MCC50 ([2]; at MCC50, figure 5) | tlag_MCC50 ([2]; at MCC50, figure 5) | MCCE ([2]; figure 5) | MCC50 ([2]; figure 5, in µM) | ME_24h (%) [2] [%] | ME_48h (%) [2] [%] | ME_72h (%) [2] [%] | further results
CC[C@@H]([C@H](C)O)n1ncn(-c2ccc(N3CCN(c4ccc(OC[C@@H]5CO[C@@](Cn6cncn6)(c6ccc(F)cc6F)C5)cc4)CC3)cc2)c1=O [Posaconazole, reference compound] | < 4.3 | lower ME | -76.4226 | -0.321 | 50.6685 | 6.2 | 0.003 | 65.9 | 24.0 | 65.8667 | 24 | 54.2 | 29.3 | 61.3333 | 46.4 | 0.002879 | 23.7078 | -76.4 | -0.32 | 50.7 | activity in trypomastigotes assay (in words) ([1]; 48 and 72 hours): inactive; IC50 ([1]; 48 h, read-out: Trypomastigotes pIC50 48 hours (converted)): > 50.1 µM; IC50 ([1]; 72 h, read-out: Trypomastigotes pIC50 72 hours (converted)): > 50.1 µM; IC50 ([1]; 72 hours, plotted values, censored values given without sign, read-out: 72 pIC50 (trypomastigotes, raw data of Fig 1D) (converted)): > 50.1 µM; IC50 ([1]; trypomastigote assay, 48 h, figure 1A, read-out: 48 pIC50 (converted)): > 50.1 µM; IC50 ([1]; trypomastigote assay, 72 h, figure 1A, read-out: 72 pIC50 (converted)): > 50.1 µM; tlag (in words) [2]: longer tlag_MCC50 and tlag_Cmax values; MCCE (Minimal Compound Concentration with Effect) ([2]; Fig 2C, average, lowest concentration that decreases AUC of AM/CELL versus time by at least 50% vs infected control): 0.003 µM; MCC50 (Minimal Cidal Concentration 50%) ([2]; Fig 2C, average, lowest concentration that reduces 50% of the parasite load measured at zero time, listed as POS): 6.2 µM; t50pct_Cmax (t50%_Cmax) ([2]; Fig 2C, average, time to reduce 50% of initial parasite load at maximum concentration): 65.9 h; AM/CELL NORM ([2]; Time 4, figure 4 A): 5.09; AM/CELL NORM ([2]; Time 24, figure 4 A): -32.2625; AM/CELL NORM ([2]; Time 48, figure 4 A): -0.614; AM/CELL NORM ([2]; Time 72, figure 4 A): 48.3608; Emax ([2]; Trypanosoma cruzi, H9c2, maximum percentage of parasite burden reduction reached by any concentration, 24 hours, read-out: ME 24h (maximum effect at 24 hours, intracellular amastigotes)): -63%
Cc1sc(C)c(C(F)(F)F)c1CNCCCNc1cc(=O)c2ccccc2[nH]1.Cl [TCMDC-140766] |  | high ME at 24 hours and 72 hours | 54.6006 | 64.1651 | 71.5778 | 5.6 | 0.6 | 24.0 | 4.0 | 24 | 4 | 72.0 | 4.0 | 72 | 4 | 0.6173 | 5.556 | 54.6 | 64.2 | 71.6 | Trypomastigotes pIC50 48 hours [1]: 4.9; Trypomastigotes pIC50 72 hours [1]: 5.3; tlag (in words) [2]: short tlag times; AM/CELL NORM ([2]; Time 4, figure 4 A): 7.643; AM/CELL NORM ([2]; Time 24, figure 4 A): 58.2122; AM/CELL NORM ([2]; Time 48, figure 4 A): 67.454; AM/CELL NORM ([2]; Time 72, figure 4 A): 69.5653; ME 24h (maximum effect at 24 hours, intracellular amastigotes) [2, 4]: 58.2122%
CC(C)N(C(=O)CN1C(=O)C(N)C(=O)N(c2ccccc2)c2ccccc21)c1ccccc1 (stereo not shown) [TCMDC-143071] | < 4.3 |  | -154.934 | -40.5762 | 63.3605 | 5.6 | 0.6 | 72.0 | 24.0 | 72 | 24 | 72.0 | 24.0 | 72 | 24 | 0.6173 | 5.556 | -154.9 | -40.6 | 63.4 | Trypomastigotes pIC50 48 hours [1]: < 4.3; Trypomastigotes pIC50 72 hours [1]: < 4.3; 72 pIC50 (trypomastigotes, raw data of Fig 1D) ([1]; 72 hours, plotted values, censored values given without sign): < 4.3; 48 pIC50 ([1]; trypomastigote assay, 48 h, figure 1A): < 4.3; 72 pIC50 ([1]; trypomastigote assay, 72 h, figure 1A): < 4.3; AM/CELL NORM ([2]; Time 4, sheet figure 4 A): -6.592; AM/CELL NORM ([2]; Time 24, sheet figure 4 A): -184.227; AM/CELL NORM ([2]; Time 48, sheet figure 4 A): -40.5762; AM/CELL NORM ([2]; Time 72, sheet figure 4 A): 57.0597; ME 24h (maximum effect at 24 hours, intracellular amastigotes) [2, 4]: -154.934%
